Laboratory results as given in US12617817B2, “Carrier peptide fragment and use thereof” (TOAGOSEI CO., LTD., priority 2020, dated 2026).
FAM = fluorescein amidite (fluorescent dye, FAM)

Tested on: HeLa cells
Assay: Evaluating cell penetrating ability by flow cytometry (FAM fluorescence) in HeLa cells
Assay type: cell-based, human
Conditions: for MFI (mean fluorescent intensity): additive 10 μM, 0.5% DMSO, 20 hours incubation at 37° C., flow cytometry FL2 detector, average of triplicate; for shift of flow cytometry histogram on the X-axis (fluorescent intensity) in comparison with Example 3 (only FAM): FIG. 1
Protocol: The cell penetrating ability of sample 1 and sample 2 was evaluated using HeLa cells (cell line established from human cervical cancer cells). In Table 2, Example 1 indicates a test of addition of sample 1 to a culture solution of HeLa cells, Example 2 indicates a test of addition of sample 2, Example 3 indicates a test of addition of FAM diluted with DMSO, and Example 4 indicates a test of addition of DMSO only.
HeLa cells were cultured in an ordinary culture medium, DMEM (Dulbecco's modified Eagle's medium, manufactured by Fuji Film Wako Pure Chemical Industries, Cat. No. 043-30085) containing 10% FBS (fetal bovine serum).
HeLa cells adhering to the culture plate were washed with PBS, 0.25% trypsin/EDTA solution was added, and the cells were incubated for 3 minutes at 37° C. After incubation, the same DMEM medium containing 10% FBS was added to deactivate the trypsin, and the cells were precipitated by 5 minutes of centrifugation at 150×g. The supernatant produced by centrifugation was removed, and the same DMEM containing 10% FBS was added to the precipitate (cell pellet) to prepare an approximately 1×10^5 cells/mL cell suspension. 2 mL of the cell suspension was added to the wells of a commercial 6-well plate (Iwaki microplate commercially available from AGC techno glass Co., Ltd) to seed the cells at a rate of approximately 2×10^5 cells/well. This was then cultured for 3 hours at 37° C. under conditions of 5% CO2, causing the cells to adhere to the bottom of the wells. Because the cell penetrating ability evaluation is performed in triplicate, cells were seeded in 3 wells for the test of Example 1, and the following operations were performed on each well.
Next, the above 2 mM sample solution 1 was diluted with the above DMEM containing 10% FBS to prepare a sample solution 1 in which the concentration of the sample 1 was 20 μM. 1 mL of the culture supernatant was removed from each well after the 3 hours of culture, and 1 mL of 20 μM sample solution 1 was added to the well so that the sample 1 concentration of the culture solution in the well was 10 μM and the DMSO concentration was 0.5%. This was then incubated for 20 hours at 37° C. under conditions of 5% CO2. After this 20-hour incubation, the culture supernatant was removed from the well, and the cells in the well were washed twice with 1 mL of PBS. 200 μL of 0.25% trypsin/EDTA solution was then added to the well, and the cells were incubated for 3 minutes at 37° C. After this incubation, 400 μL of the above DMEM containing 10% FBS was added to the well to deactivate the trypsin, after which the cell suspension in the well was transferred to a tube, and the cells were collected. 600 μL of PBS was then added to each well to wash the well. The PBS in the well was then transferred to the above tube to collect the cells remaining in the well in the tube. This tube was centrifuged for 5 minutes under conditions of 210×g at 4° C. After centrifugation the supernatant was removed, and the precipitate (cell pellet) was suspended (washed) in 1 mL of PBS and centrifuged under the same conditions. This operation was repeated twice to remove the supernatant and obtain cells (a cell pellet) that had been cultured in medium containing the sample 1.
The cells (cell pellet) obtained above were analyzed by flow cytometry to assess the cell penetrating ability of the sample 1. A flow cytometer (On-Chip Biotechnologies Co., Ltd.) was used for the analysis.
The cell pellet obtained above was suspended in 50 μL of PBS for purposes of this analysis. A further 50 μL of 2× sample buffer for flow cytometry was added to this suspension to prepare a cell suspension for analysis.
Gating was performed with the flow cytometer based on forward scatter (FSC) and side scatter (SSC), a gate was set for the cell population under analysis, and the cell population within this gate was measured for fluorescent intensity. Analysis was performed so that the cell population composed of at least 5,000 cells. […]

Substance | MFI (mean fluorescent intensity) | shift of flow cytometry histogram on the X-axis (fluorescent intensity) in comparison with Example 3 (only FAM) (10 μM, 20 hours) | efficiency (cell penetrating ability), times higher than Example 2, from MFI values (10 μM, 20 hours, comparison of MFI of Example 1 with Example 2) [times]
5(6)-carboxyfluorescein [Example 3] | 6 | – | –
FAM-KKRTLRKNDRKKR-CONH2 ({FAM}-KKRTLRKNDRKKR-NH2) [Example 2] | 15.5 | shifted to the right | –
FAM-KKRTLRKSNRKKR-CONH2 ({FAM}-KKRTLRKSNRKKR-NH2) [Example 1] | 62 | shifted to the right | 4
